Experimental data from US10414769B2, “5,8-dimethyl-9-phenyl-5,8-dihydro-6H-pyrazolo[3,4-h]quinazolin-2-yl)-(1H-pyrazol-3-yl)-amines as IGF-1R/IR inhibitors” (Boehringer Ingelheim International GmbH, priority 2015, dated 2019).

Columns and labels:
STK6 (AURKA (Aurora A)) = molecular target: T1, STK6 (AURKA (Aurora A)) (Homo sapiens, UniProt O14965); assay: Z'-LYTE kinase selectivity assay STK6; format: biochemical; conditions: read-out: STK6 (Aur A) % inhibition
T1 construct: purchased Life Technologies PV 3612
T1 sequence (O14965 1-403): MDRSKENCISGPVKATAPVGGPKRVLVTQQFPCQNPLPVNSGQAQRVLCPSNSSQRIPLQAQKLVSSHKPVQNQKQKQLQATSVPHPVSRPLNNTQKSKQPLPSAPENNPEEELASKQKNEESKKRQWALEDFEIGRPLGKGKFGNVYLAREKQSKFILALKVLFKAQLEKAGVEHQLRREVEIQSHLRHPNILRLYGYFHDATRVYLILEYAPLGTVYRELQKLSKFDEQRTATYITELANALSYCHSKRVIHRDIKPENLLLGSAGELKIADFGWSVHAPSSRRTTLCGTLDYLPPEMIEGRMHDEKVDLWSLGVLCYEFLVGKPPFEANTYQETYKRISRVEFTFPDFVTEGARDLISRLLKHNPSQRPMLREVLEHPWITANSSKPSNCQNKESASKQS
Excerpt: (§1) In order to compare the kinase selectivity of compounds (I) according to the invention with known prior art compounds the commercially provided SelectScreen® Kinase Profiling Service (Z′-LYTE®) was used (Life Technologies GmbH, Darmstadt, Germany) to investigate the ability of the compounds to inhibit a number of different, representatively selected human kinases. Further details regarding this service are available on the Life Technologies website at
(§2) The Z′-LYTE® biochemical assay employs a fluorescence-based, coupled-enzyme format and is based on the differential sensitivity of phosphorylated and non-phosphorylated peptides to proteolytic cleavage. The peptide substrate is labeled with two fluorophores—one at each end—that make up a FRET pair.
(§3) In the primary reaction, the kinase transfers the gamma-phosphate of ATP to a single tyrosine, serine or threonine residue in a synthetic FRET-peptide. In the secondary reaction, a site-specific protease recognizes and cleaves non-phosphorylated FRET-peptides. Phosphorylation of FRET-peptides suppresses cleavage by the Development Reagent. Cleavage disrupts FRET between the donor (i.e., coumarin) and acceptor (i.e., fluorescein) fluorophores on the FRET-peptide, whereas uncleaved, phosphorylated FRET-peptides maintain FRET. A ratiometric method, which calculates the ratio (the Emission Ratio) of donor emission to acceptor emission after excitation of the donor fluorophore at 400 nm, is used to quantitate reaction progress, as shown in the equation below.
(§4) The Test Compounds are screened at 1 μM.
The 2×AURKA (Aurora A) (# PV 3612)/Ser/Thr 01 (Z′-LYTE® Kinase Assay Kit—Ser/Thr 1 Peptide, # PV 3174) mixture is prepared in 50 mM HEPES pH 7.5, 0.01% BRIJ-35, 10 mM MgCl2, 1 mM EGTA. The final 10 μL Kinase Reaction consists of 0.91-12.2 ng AURKA (Aurora A) and 2 μM Ser/Thr 01 in 50 mM HEPES pH 7.5, 0.01% BRIJ-35, 10 mM MgCl2, 1 mM EGTA. After the 1 hour Kinase Reaction incubation, 5 μL of a 1:4096 dilution of Development Reagent A is added.

LCK = molecular target: T2, LCK (Homo sapiens, UniProt P06239); assay: Z'-LYTE kinase selectivity assay LCK; format: biochemical
T2 construct: purchased Life Technologies P 3043
T2 sequence (P06239 whole entry): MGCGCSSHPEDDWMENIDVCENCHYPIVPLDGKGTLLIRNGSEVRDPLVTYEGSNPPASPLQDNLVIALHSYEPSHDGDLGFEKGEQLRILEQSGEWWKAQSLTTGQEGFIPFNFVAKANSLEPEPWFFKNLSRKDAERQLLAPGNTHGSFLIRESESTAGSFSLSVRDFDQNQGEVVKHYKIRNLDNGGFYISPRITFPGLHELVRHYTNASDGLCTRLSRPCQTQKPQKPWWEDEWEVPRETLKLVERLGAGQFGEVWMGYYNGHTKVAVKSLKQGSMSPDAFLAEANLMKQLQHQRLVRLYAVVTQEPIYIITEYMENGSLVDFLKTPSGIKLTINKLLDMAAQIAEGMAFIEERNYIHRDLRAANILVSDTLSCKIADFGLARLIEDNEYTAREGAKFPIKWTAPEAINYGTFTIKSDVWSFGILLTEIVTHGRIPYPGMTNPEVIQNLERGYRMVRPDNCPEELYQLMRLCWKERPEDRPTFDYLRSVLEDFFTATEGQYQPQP
Excerpt: as §1, §2, §3, §4
The 2×LCK (# P 3043)/Tyr 02 (Z′-LYTE® Kinase Assay Kit—Tyrosine 2 Peptide, # PV 3191) mixture is prepared in 50 mM HEPES pH 7.5, 0.01% BRIJ-35, 10 mM MgCl2, 1 mM EGTA. The final 10 μL Kinase Reaction consists of 2.46-50 ng LCK and 2 μM Tyr 02 in 50 mM HEPES pH 7.5, 0.01% BRIJ-35, 10 mM MgCl2, 1 mM EGTA. After the 1 hour Kinase Reaction incubation, 5 μL of a 1:128 dilution of Development Reagent A is added.

[1] = tested on: TC-71 (EWING'S sarcoma) cells; assay: Cell proliferation assay TC-71 (Alamar Blue); format: cell-based; conditions: anti-proliferative effect, TC-71 cells, 72 h; read-out: TC71 EC50
Experimental: (§5) Cell Proliferation Assays
(§6) Compounds were tested for their anti-proliferative effects in the TC-71 (EWING'S sarcoma) and HCT 116 (colorectal carcinoma) cancer cell lines in vitro. Published scientific data has described that interference with the IGF-1R signaling pathway reduces the proliferation of TC-71 cells (Manara et al, 2007). Therefore TC-71 cells served as a positive control cell line for monitoring the activity of compounds against IGF-1R-mediated cell proliferation. […] Therefore the HCT 116 cell line served as a negative control.
(§7) 2000 TC-71 cells or 1000 HCT 116 cells were seeded per well in 180 μL IMDM+10% foetal calf serum (FCS)+penicillin/streptomycin into 96-well microtitre plates. The plates were placed in a cell culture incubator (37° C. in a humidified atmosphere of […]/5% CO2) overnight. The following day, serial dilutions of compounds, prepared in duplicates, were transferred onto the cell layers (controls without compound). The cells were cultivated for a further 72 h in the cell culture incubator. 20 μL of Alamar Blue™ (Serotec Ltd, Dusseldorf, Germany) was added to each well and the plates incubated for 7 h in the cell culture incubator. Fluorescence (extinction wavelength of 544 nm and emission at 590 nm) was then measured and the normalized data fitted by iterative calculation with a sigmoidal curve analysis program (Graph Pad Prism) with a variable Hill slope to determine the EC50 values.

[2] = tested on: HCT 116 (colorectal carcinoma) cells; assay: Cell proliferation assay HCT 116 (Alamar Blue); format: cell-based; conditions: Homo sapiens; anti-proliferative effect, HCT 116 cells (negative control line), 72 h
Experimental: as §5, §6, §7

CDK2/cyclin A = molecular target: T3, CDK2/cyclin A (Homo sapiens, UniProt P24941); assay: Z'-LYTE kinase selectivity assay CDK2/cyclin A; format: biochemical; conditions: read-out: CDK2/CYCLINA % inhibition
T3 construct: purchased Life Technologies PV 3267
Excerpt: as §1, §2, §3, §4
The 2×CDK2/cyclin A (# PV 3267)/Ser/Thr 12 (Z′-LYTE® Kinase Assay Kit—Ser/Thr 12 Peptide, # PV 3673) mixture is prepared in 50 mM HEPES pH 7.5, 0.01% BRIJ-35, 10 mM MgCl2, 1 mM EGTA. The final 10 μL Kinase Reaction consists of 1.22-10.3 ng CDK2/cyclin A and 2 μM Ser/Thr 12 in 50 mM HEPES pH 7.5, 0.01% BRIJ-35, 10 mM MgCl2. 1 mM EGTA. After the 1 hour Kinase Reaction incubation, 5 μL of a 1:4096 dilution of Development Reagent A is added.

Row | inhibition at 1 µM (STK6 (AURKA (Aurora A))) [%] | inhibition at 1 µM (LCK) [%] | EC50 [1] [nM] | EC50 [2] [nM] | inhibition at 1 µM (CDK2/cyclin A) [%] | Structure (SMILES)
1 | -15 | 85 | 2.62 | > 2500 | 72 | C[C@@H]1Cc2nn(C)c(-c3ccccc3)c2-c2nc(Nc3ccn(CCN4CCN(C)CC4)n3)ncc21 [Compound I-1]
2 | 12 | 78 | 2.35 | > 2500 | 56 | C[C@@H]1Cc2nn(C)c(-c3ccccc3)c2-c2nc(Nc3ccn(CCN4CCOCC4)n3)ncc21 [Compound I-2]
3 | 14 | 82 | 2.67 | 2000 | 66 | C[C@@H]1Cc2nn(C)c(-c3ccccc3)c2-c2nc(Nc3ccn(CCN4CCN(CC(C)(C)O)CC4)n3)ncc21 [Compound I-3]
4 | 5 | 84 | 2.17 | 1840 | 74 | CC(O)CN1CCN(CCn2ccc(Nc3ncc4c(n3)-c3c(nn(C)c3-c3ccccc3)C[C@H]4C)n2)CC1 (some centres unmarked) [Compound I-7]
5 | 6 | 59 | 5.98 | > 2500 | 49 | C[C@@H]1Cc2nn(C)c(-c3ccccc3)c2-c2nc(Nc3ccn(CCN4CCN(CC(=O)OC5CCOCC5)CC4)n3)ncc21 [Compound I-8]
6 | 10 | 80 | 5.43 | > 2500 | 63 | C[C@@H]1Cc2nn(C)c(-c3ccccc3)c2-c2nc(Nc3ccn(CCN4CCN(CC5CCCO5)CC4)n3)ncc21 (some centres unmarked) [Compound I-9]
7 | -12 | 76 | 3.74 | > 2500 | 53 | COCCN1CCN(CCn2ccc(Nc3ncc4c(n3)-c3c(nn(C)c3-c3ccccc3)C[C@H]4C)n2)CC1 [Compound I-11]
